Data reported in patent publication US5571816A, “Pyrimidines” (Hoechst Aktiengesellschaft, priority 1992, dated 1996).
Counter-ions that a name gives are not always drawn. Like-named read-outs stand apart in the source and are kept apart here.

What was measured:
[1] = Solubility in water of salts (and free bases); assay type: physicochemical; conditions: for solubility: water; for solubility / 1 part by mass dissolves in ... parts of H2O / 1 part by mass dissolves in ... parts by H2O: 2 23.0; for solubility in water, in words: categories of the Deutsches Arzneibuch
serum lipoproteins = test: Effect on serum lipoproteins of normolipemic male rats in a subchronic experiment; assay type: in vivo; conditions: Rattus norvegicus, po, by stomach tube, 7 administrations; for change in vivo at 30 mg/kg: 30 mg/kg/day; for change in vivo at 10 mg/kg: 10 mg/kg/day; for change in vivo at 3 mg/kg: 3 mg/kg/day; for change in vivo at 100 mg/kg: 100 mg/kg/day
Protocol: 3. In vivo, the increased LDL receptor activity in experimental animals is reflected by reduction in the lipoprotein fractions which can be metabolized by the LDL receptor (apoB/E receptor), i.e. a reduction in the LDL and VLDL levels is observed. The following test was carried out:
Effect on serum lipoproteins of normolipemic male rats in a subchronic experiment
Groups of in each case 10 male rats of the HOE: WISKf (SPF 71) strain with an initial weight above 180 g received once a day (in the morning) the test product or the comparison product in 1% aqueous ®Tylose MH 300 solution by stomach tube (0.5 ml/100 g of body weight); the control group in each case received only the vehicle. The last (7th) administration took place 24 hours before removal of blood and sacrifice. There was free access to food and water during the test. The food was withdrawn 24 hours before the removal of blood.
The serum from all 10 rats in a group was pooled for the analysis of the serum lipoproteins. The serum lipoproteins were separated with a preparative ultracentrifuge (KONTRON TGA 65, Rotor BECKMAN 50.4 Ti).
The following conditions specified by Koga, S., Horwitz, D. L., and Scanu, A. M., Journal of Lipid Research 10, 577 (1969) and Havel, R. J., Eder, H. A., and Bragdon, H. H., J. Clin. Invest. 34, 1345 (1955) were used to separate VLDL and LDL: 1. VLDL: Density<1.006, 40,000 rpm for 16 hours 2. LDL: Density 1.006-1.04, 40,000 rmp for 16 hours
Test kits from BOEHRINGER/Mannheim were used for the enzymatic determination of cholesterol and triglycerides in the separated lipoprotein fractions (cf. Siedel, J., Schlumberger, H., Klose, S., Ziegenhorn, J. and Wahlefeld, A. W., J. Clin. Chem. Clin. Biochem. 19, 838 (1981) and Wahlefeld, A. W., in: H. O. Bergmeier: Methoden der enzymatischen Analyse (Methods of Enzymatic Analysis), 2nd edition, Volume II, Verlag Chemie 1974, page 1878). The proteins were determined by the method of Lowry (Lowry, O. H., Roseborough, N. H., Farr, A. L. and Randell, R. J., J. Biol. Chem. 193, 265 (1951)).
Clofibrate was used as comparison product.

[2] = Table 1, N-H analogs, temp. by No. [°C]: 1 25.0, 3 26.2, 4 25.1, 5 25.2, 6 24.1, 7 24.5, 8 24.2, 9 24.2, 10 25.7, 11 25.8, read-out: Solubility in water, Concentration in % by wt.
[3] = Table 1, N-H analogs, temp. by No. [°C]: 1 25.0, 3 26.2, 4 25.1, 5 25.2, 6 24.1, 7 24.5, 8 24.2, 9 24.2, 10 25.7, 11 25.8, read-out: Solubility in water, Molarity × 10^-3
[4] = read-out: Serum LDL cholesterol, % change from control at end of treatment
[5] = read-out: Serum LDL protein, % change from control at end of treatment
[6] = read-out: Serum VLDL cholesterol, % change from control at end of treatment
[7] = read-out: Serum VLDL protein, % change from control at end of treatment
[8] = read-out: Serum VLDL triglycerides, % change from control at end of treatment
[9] = Table 1, N-H analogs, temp. by No. [°C]: 1 25.0, 3 26.2, 4 25.1, 5 25.2, 6 24.1, 7 24.5, 8 24.2, 9 24.2, 10 25.7, 11 25.8
[10] = Table 2, salts of compounds I, temp. by No. [°C]: 1 25.5, 3 22.4, 4 22.4, 5 22.0, 6 25.0, 7 25.5, 8 25.5, 9 25.5, 10 23.5, 11 23.5, 12 25.0, 13 24.0, 14 23.0, 15 22.0, 16 24.5, 17 22.5, 18 22.0
[11] = Table 2, salts of compounds I, temp. by No. [°C]: 1 25.5, 3 22.4, 4 22.4, 5 22.0, 6 25.0, 7 25.5, 8 25.5, 9 25.5, 10 23.5, 11 23.5, 12 25.0, 13 24.0, 14 23.0, 15 22.0, 16 24.5, 17 22.5, 18 22.0, read-out: Solubility in water, Concentration in % by wt.

Question: Which results are given for `CCCC1(C)CN(c2ncc(C(=O)Nc3ccc(Cl)c(C(F)(F)F)c3)c(N)n2)C(=O)N1` (stereo not drawn) [No. 9 (Table 1), reference compound]?
Answer: solubility [1, 2]: 1.3 mg/mL; solubility [1, 3]: 2.8 mM

Question: What does the source list for `CCCCN(C(=O)c1cnc(N2CCNC2=O)nc1N)c1cccc(C(F)(F)F)c1` [Example 55, 4-amino-2-(2-oxo-1-imidazolidinyl)pyrimidine-5-carboxylic acid N-butyl-N-(3-trifluoromethylphenyl)amide hydrochloride]?
Answer: change in vivo at 30 mg/kg (serum lipoproteins; [4]): -29%; change in vivo at 30 mg/kg (serum lipoproteins; [5]): -9%; change in vivo at 30 mg/kg (serum lipoproteins; [6]): -14%; change in vivo at 30 mg/kg (serum lipoproteins; [7]): -18%; change in vivo at 30 mg/kg (serum lipoproteins; [8]): -20%

Question: With `CC1(C)CN(c2ncc(C(=O)N(CC3CC3)c3cc(C(F)(F)F)ccc3F)c(N)n2)C(=O)N1` [Example 41] as the molecule, how does the change in vivo at 10 mg/kg (serum lipoproteins; [4]) read?
Answer: -73%

Question: And the change in vivo at 10 mg/kg (serum lipoproteins; [5])?
Answer: -48%

Question: And the change in vivo at 10 mg/kg (serum lipoproteins; [6])?
Answer: -100%

Question: What about the change in vivo at 10 mg/kg (serum lipoproteins; [7]) of the same molecule?
Answer: -52%

Question: And the change in vivo at 10 mg/kg (serum lipoproteins; [8])?
Answer: -68%

Question: What about the change in vivo at 30 mg/kg (serum lipoproteins; [4]) of the same molecule?
Answer: -66%

Question: What about the change in vivo at 30 mg/kg (serum lipoproteins; [5]) of the same molecule?
Answer: -36%

Question: And the change in vivo at 30 mg/kg (serum lipoproteins; [6])?
Answer: -100%

Question: What about the change in vivo at 30 mg/kg (serum lipoproteins; [7]) of the same molecule?
Answer: -45%

Question: What about the change in vivo at 30 mg/kg (serum lipoproteins; [8]) of the same molecule?
Answer: -80%

Question: What does the source list for `CC1(C)CN(c2ncc(C(=O)Nc3cc(C(F)(F)F)ccc3Cl)c(N)n2)C(=O)N1` [No. 4 (Table 1), reference compound]?
Answer: 1 part by mass dissolves in ... parts of H2O [1, 9]: 217 parts of H2 O; solubility [1, 2]: 4.6 mg/mL; solubility [1, 3]: 9.91 mM

Question: With `CC1(C)CN(c2ncc(C(=O)N(CC3CC3)c3cccc(C(F)(F)F)c3)c(N)n2)C(=O)N1` [No. 9 (Table 2)] as the molecule, how does the “1 part by mass dissolves in ... parts by H2O” value (“1 part … by H2O” below) [1, 10] read?
Answer: 13.1 parts by H2 O

Question: And the solubility [1, 11]?
Answer: 71.1 mg/mL

Question: With `COc1ccc(C(F)(F)F)cc1NC(=O)c1cnc(N2CC(C)(C)NC2=O)nc1N` [No. 6 (Table 1), reference compound] as the molecule, how does the “1 part by mass dissolves in ... parts of H2O” value [1, 9] read?
Answer: 75 parts of H2 O

Question: What about the “solubility in water, in words” value [1] of the same molecule?
Answer: sparingly soluble

Question: What about the solubility [1, 2] of the same molecule?
Answer: 13.2 mg/mL

Question: What about the solubility [1, 3] of the same molecule?
Answer: 28.9 mM

Question: For `CC1(C)CN(c2ncc(C(=O)N(CC3CC3)c3cc(C(F)(F)F)ccc3F)c(N)n2)C(=O)N1` [Example 61, 4-amino-2-(4,4-dimethyl-2-oxo-1-imidazolidinyl)pyrimidine-5-carboxylic acid N-cyclopropylmethyl-N-(2-fluoro-5-trifluoromethylphenyl)amide], which “1 part … by H2O” value [1, 10] is on record?
Answer: 65.8 parts by H2 O

Question: What about the solubility [1, 11] of the same molecule?
Answer: 15 mg/mL

Question: With `CC1(C)CN(c2ncc(C(=O)Nc3cccc(C(F)(F)F)c3)c(N)n2)C(=O)N1` [4-amino-2-(4,4-dimethylimidazolidin-2-on-1-yl)pyrimidine-5-carboxylic acid N-(3-trifluoromethylphenyl)amide, reference compound] as the molecule, how does the “solubility in water, in words” value [1] read?
Answer: exceptionally slightly soluble

Question: Which “1 part by mass dissolves in ... parts of H2O” value [1, 9] does the source give for `CC1(C)CN(c2ncc(C(=O)Nc3ccc(F)c(C(F)(F)F)c3)c(N)n2)C(=O)N1` [No. 3 (Table 1), reference compound] here?
Answer: 703 parts of H2 O

Question: What about the solubility [1, 2] of the same molecule?
Answer: 1.4 mg/mL

Question: What about the solubility [1, 3] of the same molecule?
Answer: 3.17 mM

Question: With `CC(C)CN(C(=O)c1cnc(N2CC(C)(C)NC2=O)nc1N)c1cccc(C(F)(F)F)c1` [Example 36] as the molecule, how does the change in vivo at 30 mg/kg (serum lipoproteins; [4]) read?
Answer: -38%

Question: And the change in vivo at 30 mg/kg (serum lipoproteins; [5])?
Answer: -5%

Question: And the change in vivo at 30 mg/kg (serum lipoproteins; [6])?
Answer: -65%

Question: What about the change in vivo at 30 mg/kg (serum lipoproteins; [7]) of the same molecule?
Answer: -33%

Question: And the change in vivo at 30 mg/kg (serum lipoproteins; [8])?
Answer: 42%

Question: Which “1 part … by H2O” value [1, 10] does the source give for `CC(C)CN(C(=O)c1cnc(N2CC(C)NC2=O)nc1N)c1cccc(C(F)(F)F)c1` (stereo not drawn) [Example 114] here?
Answer: 24.7 parts by H2 O

Question: And the solubility [1, 11]?
Answer: 38.9 mg/mL

Question: Which results are given for `COc1ccc(NC(=O)c2cnc(N3CC(C)(C)NC3=O)nc2N)cc1C(F)(F)F` [No. 7 (Table 1), reference compound]?
Answer: 1 part by mass dissolves in ... parts of H2O [1, 9]: 554 parts of H2 O; solubility [1, 2]: 1.8 mg/mL; solubility [1, 3]: 3.92 mM

Question: For `CCCCCN(C(=O)c1cnc(N2CC(C)(C)NC2=O)nc1N)c1cccc(C(F)(F)F)c1` [Example 47, 4-amino-2-(4,4-dimethyl-2-oxo-1-imidazolidinyl)pyrimidine-5-carboxylic acid N-pentyl-N-(3-trifluoromethylphenyl)amide hydrochloride], which “1 part … by H2O” value [1, 10] is on record?
Answer: 51.3 parts by H2 O

Question: What about the solubility [1, 11] of the same molecule?
Answer: 18.7 mg/mL

Question: Which change in vivo at 3 mg/kg (serum lipoproteins; [4]) does the source give for `CCCCN(C(=O)c1cnc(N2CC(C)(C)NC2=O)nc1N)c1cccc(C(F)(F)F)c1` [Example 6, 4-amino-2-(4,4-dimethyl-2-oxo-1-imidazolidinyl)pyrimidine-5-carboxylic acid N-butyl-N-(3-trifluromethylphenyl)amide hydrochloride] here?
Answer: -24%

Question: What about the change in vivo at 3 mg/kg (serum lipoproteins; [5]) of the same molecule?
Answer: -3%

Question: What about the change in vivo at 3 mg/kg (serum lipoproteins; [6]) of the same molecule?
Answer: -35%

Question: What about the change in vivo at 3 mg/kg (serum lipoproteins; [7]) of the same molecule?
Answer: -12%

Question: And the change in vivo at 10 mg/kg (serum lipoproteins; [4])?
Answer: -20%

Question: What about the change in vivo at 10 mg/kg (serum lipoproteins; [5]) of the same molecule?
Answer: -62%

Question: And the change in vivo at 10 mg/kg (serum lipoproteins; [6])?
Answer: -35%

Question: And the change in vivo at 10 mg/kg (serum lipoproteins; [7])?
Answer: -15%

Question: And the change in vivo at 30 mg/kg (serum lipoproteins; [4])?
Answer: -62%

Question: And the change in vivo at 30 mg/kg (serum lipoproteins; [5])?
Answer: -36%

Question: What about the change in vivo at 30 mg/kg (serum lipoproteins; [6]) of the same molecule?
Answer: 41%

Question: And the change in vivo at 30 mg/kg (serum lipoproteins; [7])?
Answer: -41%

Question: What about the change in vivo at 30 mg/kg (serum lipoproteins; [8]) of the same molecule?
Answer: -69%

Question: For `CN(C(=O)c1cnc(N2CC(C)(C)NC2=O)nc1N)c1cc(C(F)(F)F)ccc1Cl` [Example 29], which change in vivo at 30 mg/kg (serum lipoproteins; [4]) is on record?
Answer: -51%

Question: And the change in vivo at 30 mg/kg (serum lipoproteins; [5])?
Answer: -27%

Question: What about the change in vivo at 30 mg/kg (serum lipoproteins; [6]) of the same molecule?
Answer: -80%

Question: What about the change in vivo at 30 mg/kg (serum lipoproteins; [7]) of the same molecule?
Answer: 40%

Question: What about the change in vivo at 30 mg/kg (serum lipoproteins; [8]) of the same molecule?
Answer: -70%

Question: Which change in vivo at 10 mg/kg (serum lipoproteins; [4]) does the source give for `CN(C(=O)c1cnc(N2CC(C)(C)NC2=O)nc1N)c1ccc(Br)c(C(F)(F)F)c1` [Example 30] here?
Answer: -25%

Question: What about the change in vivo at 10 mg/kg (serum lipoproteins; [5]) of the same molecule?
Answer: -19%

Question: And the change in vivo at 10 mg/kg (serum lipoproteins; [6])?
Answer: -29%

Question: And the change in vivo at 10 mg/kg (serum lipoproteins; [7])?
Answer: -36%

Question: And the change in vivo at 10 mg/kg (serum lipoproteins; [8])?
Answer: 7%

Question: Which results are given for `CCOC(=O)C(C)(C)Oc1ccc(Cl)cc1` [Clofibrate, reference compound]?
Answer: change in vivo at 100 mg/kg (serum lipoproteins; [4]): -31%; change in vivo at 100 mg/kg (serum lipoproteins; [5]): -3%; change in vivo at 100 mg/kg (serum lipoproteins; [6]): -51%; change in vivo at 100 mg/kg (serum lipoproteins; [7]): -30%; change in vivo at 100 mg/kg (serum lipoproteins; [8]): -34%
